Results: paper PMC5613217 (Biochemistry and Biophysics Reports, 2017)

Tests used:
MtbNei2 (Rv3297) [1] = target: T1, MtbNei2 (Rv3297) (Mycobacterium tuberculosis, UniProt P9WNC1); experiment: In vitro inhibition of Uracil DNA glycosylase activity of MtbNei2; format: biochemical; settings: for Inhibition of Uracil DNA glycosylase activity (in words): 50-800 µM inhibitor, 80 nM MtbNei2
T1 sequence (P9WNC1 1-255): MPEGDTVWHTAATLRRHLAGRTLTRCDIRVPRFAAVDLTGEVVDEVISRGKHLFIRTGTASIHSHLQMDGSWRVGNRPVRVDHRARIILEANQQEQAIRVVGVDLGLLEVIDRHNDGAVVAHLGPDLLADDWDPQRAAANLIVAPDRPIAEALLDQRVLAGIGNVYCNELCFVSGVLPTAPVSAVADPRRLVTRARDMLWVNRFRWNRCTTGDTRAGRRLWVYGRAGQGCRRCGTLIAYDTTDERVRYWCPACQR

MtbNei2 (Rv3297) [2] = target: T1, MtbNei2 (Rv3297); experiment: In vitro inhibition of AP site cleavage; format: biochemical; settings: for Inhibition of AP site cleavage activity (in words): 50-800 µM inhibitor, 80 nM MtbNei2

| SMILES | IC50 (MtbNei2 (Rv3297) [1]) [µM] | Inhibition of Uracil DNA glycosylase activity (in words) (MtbNei2 (Rv3297) [1]) | IC50 (MtbNei2 (Rv3297) [2]) [µM] | Inhibition of AP site cleavage activity (in words) (MtbNei2 (Rv3297) [2]) |
| --- | --- | --- | --- | --- |
| COc1c2c(cc3c1[C@@H]1Oc4c(ccc(O)c4CC=C(C)C)[C@@H]1CO3)OC(C)(C)C=C2 [NSC250430, Gangetin] | 76.2 | good inhibition | 43.6 | good inhibition |
| C[C@H]1Oc2cc3c(-c4c(O)cc(O)c5c(O)c6c(cc45)O[C@H](C)[C@@H](C)C6=O)c(O)cc(O)c3c(O)c2C(=O)[C@@H]1C [NSC345647, Chaetochromin] | 92.7 | good inhibition | 84.7 | good inhibition |
